From patent US20150164910A1, “ANTIVIRAL COMPOUNDS AND METHODS OF USE” (The Regents of the University of Califonia, priority 2012, published 2015)

What was measured:
[1] = test system: eGFP-expressing recombinant CVB3; format: cell-based, coxsackievirus B3; conditions: for Inhibition of infected cells: eGFP-CVB3 m.o.i=1, compound added at time of infection, 6 hr post infection, 1-(% eGFP+ cells with compound/% with DMSO only)
[2] = test system: CVB3-H3; assay: Plaque reduction assay, CVB3-H3 in HeLa-RW cells; format: cell-based, coxsackievirus B3; conditions: compound added 30 min before infection, CVB3-H3 MOI 1, HeLa-RW, 6 hours; log10(titer with DMSO only/titer with inhibitor)

Compound	Inhibition of infected cells [1] [%]	Log10 reduction of virus titer [2]	% of eGFP + cells, 0 Hr ([1]; compound added 0 hr post infection at its peak activity concentration, read 6 hr post infection, DMSO 26.0) [%]	% of eGFP + cells, 1 Hr ([1]; compound added 1 hr post infection at its peak activity concentration, read 6 hr post infection, DMSO 23.7) [%]	% of eGFP + cells, 2 Hr ([1]; compound added 2 hr post infection at its peak activity concentration, read 6 hr post infection, DMSO 24.8) [%]
CCCCOc1cc(C(=O)NCCN(CC)CC)c2ccccc2n1 [Compound 35, 2-Butoxy-N-[2-(diethylamino)ethyl]-4-quinoline-carboxamide, reference compound]	100				
COc1ccc(NC(=O)c2cc(-c3cccs3)nc3c2cnn3C(C)C)cc1 [Compound 7, 1-Isopropyl-N-(4-methoxyphenyl)-6-(2-thienyl)-1H-pyrazolo [3,4-b]pyridine-4-carboxamide]	99.5	4.3			
Cc1ccc2cc(CN(Cc3ccc(F)cc3)C(=O)c3cccs3)c(=O)[nH]c2c1C [Compound 37, N-[(7,8-Dimethyl-2-oxo-1,2-dihydro-3-quinolinyl)methyl]-N-(4-fluorobenzyl)-2-thiophene-carboxamide]	99.7	4.2			
Cc1ccc([S+]([O-])Nc2cccc(C(=O)O)c2)cc1 (stereo not drawn) [Compound 55, 3-{[(4-Methylphenyl)sulfinyl]amino} benzoic acid]	98.4	2.5			
COc1ccc(/N=c2\oc3ccccc3cc2C(=O)NCC2CCCO2)cc1 (stereo not drawn) [Compound 62, (2Z)-2-[(4-Methoxyphenyl)imino]-N-(tetrahydro-2-furanylmethyl)-2H-chromene-3-carboxamide]	90.4	1.5			
COc1ccc(-c2nc(C)c(C(=O)Nc3cccc(-c4nnc5n4CCCCC5)c3)s2)cc1 [Compound 61, 2-(4-Methoxyphenyl)-4-methyl-N-[3-(6,7,8,9-tetrahydro-5H-[1,2,4]triazolo [4,3-a]azepin-3-yl)phenyl]-1,3-thiazole-5-carboxamide]	96.0	1.8			
O=C(N/N=C1/c2ccccc2-c2nc3ccccc3nc21)c1cccnc1 [Compound 51, N′-[(11Z)-11H-Indeno[1,2-b]quinoxalin-11-ylidene] nicotinohydrazide]	1.6	0.1			
Cl.O[C@@H]1[C@@H](O)C=C2CCN3Cc4cc5c(cc4[C@H]1C23)OCO5 (stereo partly drawn) [Compound 73, (1S,2S,12bS)-2,4,5,7,12b,12c-Hexahydro-1H-[1,3]dioxolo[4,5-j]pyrrolo[3,2,1-de] phenanthridine-1,2-diol hydrochloride (1:1), reference compound]	100	2.8			
NC1=Nc2nc3ccccc3n2C(c2ccc3ccccc3c2)N1 (stereo not drawn) [Compound 67, 4-(2-Naphthyl)-1,4-dihydro[1,3,5] triazino[1,2-a]benzimidazol-2-amine]	67.7	1.9			
CC1Oc2ccc(NC(=O)c3cc(C4CC4)nc4c3cnn4C(C)C)cc2NC1=O (stereo not drawn) [Compound 13, 6-Cyclopropyl-1-isopropyl-N-(2-methyl-3-oxo-3,4-dihydro-2H-1,4-benzoxazin-6-yl)-1H-pyrazolo [3,4-b]pyridine-4-carboxamide]	100	4.2			
CC(C)n1ncc2c(C(=O)Nc3cccc(-c4nnco4)c3)cc(-c3ccccc3)nc21 [Compound 17, 1-Isopropyl-N-[3-(1,3,4-oxadiazol-2-yl)phenyl]-6-phenyl-1H-pyrazolo[3,4-b]pyridine-4-carboxamide]	99.6	4.3			
CCC(C)(C)Nc1c(-c2ccc(OC)c(CN3CCOCC3)c2)nc2cnccn12 [Compound 60, 2-[4-Methoxy-3-(4-morpholinylmethyl)phenyl]-N-(2-methyl-2-butanyl) imidazo[1,2-a]pyrazin-3-amine]	100	1.8			
Cc1nc2ccccc2c2c(NC(=O)c3cnccn3)c3ccccc3n12 [Compound 50, N-(6-Methylindolo [1,2-c]quinazolin-12-yl)-2-pyrazinecarboxamide]	69.9	2.5			
O=C(N/N=C/c1ccc(O)cc1)c1cc(-c2ccccc2)nc2ccccc12 [Compound 29, N′-[(E)-(4-Hydroxyphenyl)methylene]-2-phenyl-4-quinoline-carbohydrazide]	100	3.8			
C#CCSc1nc2ccccc2c(=O)n1Cc1ccccc1 [Compound 48, 3-Benzyl-2-(2-propyn-1-ylsulfanyl)-4(3H)-quinazolinone]	100	4.5			
Cl.Cl.OCCN1CCN(CC/C=C2/c3ccccc3Sc3ccc(C(F)(F)F)cc32)CC1 [Compound 70, 2-(4-{(3Z)-3-[2-(Trifluoromethyl)-9H-thioxanthen-9-ylidene]propyl}-1-piperazinyl)ethanol dihydrochloride, reference compound]	99.6	3.9			

Compound	Inhibition of infected cells [1] [%]	Log10 reduction of virus titer [2]	% of eGFP + cells, 0 Hr ([1]; compound added 0 hr post infection at its peak activity concentration, read 6 hr post infection, DMSO 26.0) [%]	% of eGFP + cells, 1 Hr ([1]; compound added 1 hr post infection at its peak activity concentration, read 6 hr post infection, DMSO 23.7) [%]	% of eGFP + cells, 2 Hr ([1]; compound added 2 hr post infection at its peak activity concentration, read 6 hr post infection, DMSO 24.8) [%]
Br.COc1ccc(C(=O)Cn2c(=N)n(Cc3ccc(C)cc3)c3ccccc32)cc1 [Compound 39, 1-[2-(4-Methoxyphenyl)-2-oxoethyl]-3-(4-methylbenzyl)-1,3-dihydro-2H-benzimidazol-2-iminium bromide]	100	0.3			
CC(C)n1ncc2c(C(=O)Nc3cccc(-c4nnc5n4CCCCC5)c3)cc(C3CC3)nc21 [Compound 14, 6-Cyclopropyl-1-isopropyl-N-[3-(6,7,8,9-tetrahydro-5H-[1,2,4]triazolo [4,3-a]azepin-3-yl)phenyl]-1H-pyrazolo [3,4-b]pyridine-4-carboxamide]	100	3.3			
Cn1ccc(NC(=O)c2cc(-c3cccs3)nc3ccccc23)n1 [Compound 32, N-(1-Methyl-1H-pyrazol-3-yl)-2-(2-thienyl)-4-quinoline-carboxamide]	100	4.0			
Brc1ccc(-c2csc3ncnc(Sc4nnc(C5CC5)o4)c23)cc1 [Compound 53, 5-(4-Bromophenyl)-4-[(5-cyclopropyl-1,3,4-oxadiazol-2-yl)sulfanyl]thieno [2,3-d]pyrimidine]	100	1.8			
Nc1nnc(SCc2nc3cc(Cl)ccc3n2Cc2ccccc2)s1 [Compound 43, 5-{[(1-Benzyl-5-chloro-1H-benzimidazol-2-yl)methyl]sulfanyl}-1,3,4-thiadiazol-2-amine]	91.3	0.3			
CS(=O)(=O)c1ccc(NC(=O)c2cc(-c3ccc(F)cc3)nc3ccccc23)cc1 [Compound 28, 2-(4-Fluorophenyl)-N-[4-(methylsulfonyl)phenyl]-4-quinolinecarboxamide]	99.6	4.5			
1-Isopropyl- N,6-diphenyl-1H- pyrazolo[3,4-b] pyridine- 4-carboxamide [Compound 16]	100	4.5	0.0	0.1	0.0
NC(=O)C1CCN(CC(=O)N2N=C3/C(=C/c4cccs4)CCCC3C2c2cccs2)CC1 (stereo not drawn) [Compound 63, 1-{2-Oxo-2-[(7E)-3-(2-thienyl)-7-(2-thienylmethylene)-3,3a,4,5,6,7-hexahydro-2H-indazol-2-yl]ethyl}-4-piperidine-carboxamide]	100	4.2			
Cc1ccc(F)cc1NC(=O)c1cc(-c2cccs2)nc2c1cnn2C(C)C [Compound 2, N-(5-Fluoro-2-methylphenyl)-1-isopropyl-6-(2-thienyl)-1H-pyrazolo[3,4-b] pyridine-4-carboxamide]	99.6	4.4			
O=C(c1ccco1)N(Cc1ccccc1)Cc1ccccn1 [Compound 58, N-Benzyl-N-(2-pyridinylmethyl)-2-furamide]	91.7	2.4			
CCOc1ccc(C(=O)N2CCC(C(=O)c3ccc4c(c3)OCCO4)CC2)cc1 [Compound 44, 2,3-Dihydro-1,4-benzodioxin-6-yl[1-(4-ethoxybenzoyl)-4-piperidinyl] methanone]	84.9	0.2			
CCS(=O)(=O)c1ccc(NC(=O)c2cc(-c3ccccc3)nc3ccccc23)cc1 [Compound 27, N-[4-(Ethylsulfonyl)phenyl]-2-phenyl-4-quinoline-carboxamide]	89.6	3.4			
COc1ccc(-c2nc3cnccn3c2NCc2ccc(C)cc2)cc1CO [Compound 59, (2-Methoxy-5-{3-[(4-methylbenzyl)amino]imidazo[1,2-a]pyrazin-2-yl}phenyl)methanol]	75.2	1.3			
O=C(CCCc1nc(-c2ccccc2)no1)N1CCN(C2CCCCC2)C(=O)C1 [Compound 69, 1-Cyclohexyl-4-[4-(3-phenyl-1,2,4-oxadiazol-5-yl)butanoyl]-2-piperazinone]	96.5	2.0			
Cl.OCCN1CCN(CC/C=C2/c3ccccc3Sc3ccc(Cl)cc32)CC1 [Compound 71, 2-[4-[3-(2-chlorothioxanthen-9-ylidene)propyl]piperazin-1-yl]ethanol hydrochloride, reference compound]	99.1	4.2			
CCn1ncc2c(C(=O)Nc3ccc(C#N)cc3)cc(-c3cccs3)nc21 [Compound 20, N-(4-Cyanophenyl)-1-ethyl-6-(2-thienyl)-1H-pyrazolo [3,4-b]pyridine-4-carboxamide]	99.6	1.9			
